Laboratory results as given in patent US9951183B2, “Amphiphilic blockcopolymers comprising reduction sensitive biodegradable polyesteramides” (DSM IP Assets B.V., priority 2014, dated 2018).

Tests used:
HeLa cells [1] = assay: Cellular uptake and intracellular release of DOX (CLSM); format: cell-based; conditions: DOX 12.5 μg/mL
Method: HeLa cells are plated on microscope slides in a 24-well plate (5×10^4 cells/well) under 5% CO2 atmosphere at 37° C. using Dulbecco's modified Eagle's medium (DMEM) supplemented with 10% fetal bovine serum, 1% L-glutamine, antibiotics penicillin (100 IU/mL), and streptomycin (100 μg/mL). […] After incubation at 37° C. and a humidified 5% CO2-containing atmosphere for 0.5, 2 or 4 h, the culture media are removed and the cells on microscope plates are washed three times with PBS. The cells are then fixed with 4% formaldehyde for 15 min and washed with PBS 3 times. The cell nuclei are stained with 4′,6-diamidino-2-phenylindole (DAPI, blue) for 15 min and washed with PBS 3 times.

HeLa cells [2] = assay: Cell viability MTT assay, HeLa; format: cell-based; conditions: DOX 12.5 μg/mL
Method: HeLa and MCF-7 cells are plated in a 96-well plate (1×10^4 cells/well) using DMEM medium supplemented with 10% fetal bovine serum, 1% L-glutamine, antibiotics penicillin (100 IU/mL), and streptomycin (100 μg/mL) and incubation for 24 h. […] Then 3-(4,5-dimethylthiazol-2-yl)-2,5-diphenyl tetrazoliumbromide (MTT) solution in PBS (10 μL, 5 mg/mL) are added and incubated for another 4 h. The medium is aspirated, the MTT-formazan generated by live cells is dissolved in 150 μL of DMSO, and the absorbance at a wavelength of 490 nm of each well is measured using a microplate reader. The relative cell viability (%) is determined by comparing the absorbance at 490 nm with control wells containing only cell culture medium. Data are presented as average±SD (n=4).

COc1cccc2c1C(=O)c1c(O)c3c(c(O)c1C2=O)C[C@@](O)(C(=O)CO)C[C@@H]3O[C@H]1C[C@H](N)[C@H](O)[C@H](C)O1 [free DOX, doxorubicin]
intracellular distribution of DOX (HeLa cells [1]): mainly accumulated in cell nucleus
cell viability (HeLa cells [2]; 24 h): 31.8%
cell viability (HeLa cells [2]; 48 h): 19.1%
